From publication PMC2748089, “Bactericidal activities of the cationic steroid CSA-13 and the cathelicidin peptide LL-37 against Helicobacter pylori in simulated gastric juice” (BMC Microbiology, 2009)
Where two headings read alike, the source gives them in different places. Ends that are not written are not given here.

Tests used:
human red blood cells = system: human red blood cells
Experimental: (§1) Figure 5 Evaluation of cell toxicity. Hemoglobin and LDH release from human red blood cells and human gastric adenocarcinoma cells (panel A and B respectively) after addition of LL-37 (circles), WLBU2 (diamonds), and CSA-13 (triangles), followed by incubation for 1 h at 37°C. Data shown are means ± SD of three experiments. Morphology of human gastric adenocarcinoma cells before (control) and after LL-37, WLBU2 and CSA-13 treatment was evaluated by phase-contrast microscopy (panel C). Data from one representative experiment are shown.
The hemolytic activity of LL-37, WLBU-2 and CSA-13 (0-200 μg/ml), against human red blood cells (RBC) was tested using erythrocytes suspended in PBS. RBC prepared from fresh blood (Hematocrit ~5%) were incubated for 1 h at 37°C after addition of test molecules. Relative hemoglobin concentration in supernatants after centrifugation at 2000 × g was monitored by measuring the absorbance at 540 nm. 100% hemolysis was taken from samples in which 2% Triton X-100 was added.

[1] = system: Human gastric adenocarcinoma cells (ATCC; CRL-1739); assay: LDH release from gastric adenocarcinoma cells; assay type: cell-based; details: bactericidal concentrations against H. pylori and E. coli MG1655 in saline and nutrient containing buffer
From the text: Figure 5 Evaluation of cell toxicity. […] Data shown are means ± SD of three experiments. […] Data from one representative experiment are shown.

[2] = system: Human gastric adenocarcinoma cells (ATCC; CRL-1739); details: 10 μg/ml, 1 hour; phase-contrast microscopy
Experimental: as §1
Human gastric adenocarcinoma cells (ATCC; CRL-1739) were maintained in DMEM (BioWhittaker) culture supplemented with 10% heat-inactivated fetal bovine serum (Hyclone) at 37°C and 5% CO2. For LDH release assay and microscope evaluation cells were plated in 24 well plates and grown to confluence. In all experiments, the medium was changed to serum-free media ~12 h prior to cell treatment with LL-37, WLBU2 and CSA-13 (0-200 μg/ml) in individual wells, for 1 hour. Cell culture medium was then collected, centrifuged (10 mins, 5000 rpm, RT) and subjected to LDH evaluation (LDH-cytotoxicity Assay Kit; BioVision Inc.)

H. pylori [3] = details: for Change of MBC on addition of 2 mM MgCl2: HEPES buffer with 2 mM MgCl2 versus HEPES, data not shown
drug-resistant bacteria = details: previous susceptibility study; cited from earlier work
pepsin = pepsin (Sus scrofa, UniProt P00791); assay: LC-MS analytical characterization after incubation with pepsin at low pH; details: 3 h incubation with pepsin 0.5 mg/ml at pH ~1.5, 37°C; LC-MS (C18, ESI positive); data from one experiment
Experimental: The total ion chromatogram (TIC) is presented for each sample condition with an inset mass-to-charge (m/z) spectra showing intensity for the boxed TIC peaks. The molecular weight of intact LL-37 is 4494, which can be observed with multiple charges (m/z = 4 MW = 1124, m/z = 5 MW = 900, etc) in positive ion mode. The molecular weight of CSA13 is 678, which can be observed directly and with multiple charges. Data from one experiment are shown.
Analytical characterization was performed on the CSA-13 and LL-37 suspensions after 3H incubation with pepsin (0.5 mg/ml) at low pH (~1,5) at 37°C, using the Shimadzu (Columbia, MD) instrument (the LC-MS system consisted of a LC-20AB solvent delivery system and SIL-20A auto-sampler coupled to dual wavelength UV-Vis detector and a LCMS 2010EV single quadrupole mass spectrometer), coupled to a Shimadzu Premier C18 column (150 mm × 4.6 mm i.d., 5 μm particle size). The mobile phase flow rate was 1 ml/min with a starting ratio of 90% mobile phase A (water) and 10% mobile phase B (acetonitrile) both with 0.1% (v/v) formic acid. The analytical method consisted of the following steps: (i) sample injection and holding at 10% B for 5 min, (ii) linear gradient from 10% to 90% B over 15 minutes, (iii) holding at 90% B for 5 minutes, (iv) isocratic step to 10% B and holding for 5 minutes prior to the next sample injection. […]

Escherichia coli MG1655 = assay: Bacteria killing assay after pre-incubation in simulated gastric juice, or with mucin or bile; details: E. coli MG1655, CFU count; for Antibacterial activity after pre-incubation at pH ~1.5 in the presence of pepsin: 3 h pre-incubation at 37°C in simulated gastric juice pH ~1.5 with pepsin 0.5 mg/ml; for Antibacterial activity after pre-incubation at pH ~1.5 in the presence of pepsin / Antibacterial activity after pre-incubation at pH ~1.5: versus PBS pH 7.4, pH adjusted to 7.4 before 1 h killing assay, means of three to four experiments; for Antibacterial activity after pre-incubation at pH ~1.5: 3 h pre-incubation at 37°C in simulated gastric juice pH ~1.5 without pepsin
H. pylori [4] = assay: MIC of conventional antibiotics against H. pylori on Muller-Hinton agar; assay type: cell-based, Helicobacter pylori; details: for Susceptibility classification by MIC: all H. pylori isolates, resistant when MIC above 4 μg/ml for AMX, 16 μg/ml for TET; for MIC: Helicobacter pylori
[5] = HEPES buffer, 6 hours incubation at 37°C, inoculum 10^8 CFU/ml, all isolated strains of H. pylori
[6] = 96 h, H. pylori clinical strain 1, Muller-Hinton agar with 5% sheep blood, 4 days at 35°C, microaerophilic, read-out: MIC
[7] = 96 h, H. pylori clinical strain 2, Muller-Hinton agar with 5% sheep blood, 4 days at 35°C, microaerophilic, read-out: MIC
[8] = 96 h, H. pylori clinical strain 3, Muller-Hinton agar with 5% sheep blood, 4 days at 35°C, microaerophilic, read-out: MIC
[9] = 96 h, H. pylori clinical strain 4, Muller-Hinton agar with 5% sheep blood, 4 days at 35°C, microaerophilic, read-out: MIC
[10] = 96 h, H. pylori clinical strain 5, Muller-Hinton agar with 5% sheep blood, 4 days at 35°C, microaerophilic, read-out: MIC
[11] = 96 h, H. pylori clinical strain 6, Muller-Hinton agar with 5% sheep blood, 4 days at 35°C, microaerophilic, read-out: MIC
[12] = 96 h, H. pylori clinical strain 7, Muller-Hinton agar with 5% sheep blood, 4 days at 35°C, microaerophilic, read-out: MIC
[13] = H. pylori clinical strains 5, 6, 7, resistant when MIC above 1 μg/ml for CLR, 16 μg/ml for Metronidazole

pepsin, sequence (P00791 60-385): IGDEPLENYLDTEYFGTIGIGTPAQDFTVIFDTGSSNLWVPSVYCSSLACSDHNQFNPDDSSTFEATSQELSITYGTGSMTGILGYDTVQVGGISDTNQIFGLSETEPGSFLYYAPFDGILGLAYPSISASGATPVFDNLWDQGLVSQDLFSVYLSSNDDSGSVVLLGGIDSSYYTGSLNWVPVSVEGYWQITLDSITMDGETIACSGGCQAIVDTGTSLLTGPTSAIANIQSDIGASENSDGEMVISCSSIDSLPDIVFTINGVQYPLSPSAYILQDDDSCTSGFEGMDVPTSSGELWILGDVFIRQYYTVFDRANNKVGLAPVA

With `CCCCCCCCNCCC[C@@H](C)[C@H]1CC[C@H]2[C@@H]3[C@H](OCCCN)C[C@@H]4C[C@H](OCCCN)CC[C@]4(C)[C@H]3C[C@H](OCCCN)[C@]12C` [CSA-13] the “Bactericidal concentrations relative to minimal hemolytic concentration” value (human red blood cells; bactericidal concentrations against H. pylori and E. coli MG1655 in saline and nutrient containing buffer) was “below its minimal hemolytic concentration”, the “Bactericidal concentrations relative to concentrations causing dysfunction of adenocarcinoma cell membranes” value [1] was “below concentrations causing dysfunction of adenocarcinoma cell membranes” and the “Adenocarcinoma cell morphology versus control cells” value [2] was “no visible difference”. For the same compound, the “average MBC” value (H. pylori [3]) was 2.98 ± 3.11 µg/mL, the “MBC after pre-incubation with buffer at low pH containing pepsin or mucin” value (H. pylori [3]; H. pylori ATCC 43504, 1 h pre-incubation at 37°C in simulated gastric juice pH ~1.5 with pepsin or mucin) was “nearly unchanged” and the “Change of MBC on addition of 2 mM MgCl2” value (H. pylori [3]; H. pylori ATCC 43504) was “four fold increase”. The “average MBC” value (H. pylori [3]; [5]) was 0.31 ± 0.25 µg/mL, the “MBC (minimum bactericidal concentration), range over strains” value (H. pylori [3]; nutrient-containing media, clinical isolates of H. pylori) was 0.275 to 8.9 µg/mL and the MIC50/MBC50 ratio (drug-resistant bacteria) was 1. The “Stability to pepsin at low pH (mass spectrometry analysis)” value (pepsin) was “not changed”, the “Antibacterial activity after pre-incubation at pH ~1.5 in the presence of pepsin” value (Escherichia coli MG1655) was “unchanged” and the “Antibacterial activity after pre-incubation at pH ~1.5” value (Escherichia coli MG1655) was “unchanged”. For the same compound, the “Bactericidal activity in the presence of purified gastric mucin” value (Escherichia coli MG1655; mucin 1000 μg/ml, 1 h killing assay at 37°C) was “less inhibited by mucin”.

With `CN(C)[C@@H]1C(O)=C(C(N)=O)C(=O)[C@@]2(O)C(O)=C3C(=O)c4c(O)cccc4[C@@](C)(O)[C@H]3C[C@@H]12` [TET, tetracycline] the “Susceptibility classification by MIC” value (H. pylori [4]) was “susceptible”.

With `CC[C@H](C)[C@H](NC(=O)[C@H](CCCCN)NC(=O)[C@H](CCC(=O)O)NC(=O)[C@H](CCCCN)NC(=O)[C@H](CO)NC(=O)[C@H](CCCCN)NC(=O)[C@H](CCCNC(=N)N)NC(=O)[C@H](Cc1ccccc1)NC(=O)[C@H](Cc1ccccc1)NC(=O)[C@H](CC(=O)O)NC(=O)CNC(=O)[C@H](CC(C)C)NC(=O)[C@@H](N)CC(C)C)C(=O)NCC(=O)N[C@@H](CCCCN)C(=O)N[C@@H](CCC(=O)O)C(=O)N[C@@H](Cc1ccccc1)C(=O)N[C@@H](CCCCN)C(=O)N[C@@H](CCCNC(=N)N)C(=O)N[C@H](C(=O)N[C@H](C(=O)N[C@@H](CCC(N)=O)C(=O)N[C@@H](CCCNC(=N)N)C(=O)N[C@H](C(=O)N[C@@H](CCCCN)C(=O)N[C@@H](CC(=O)O)C(=O)N[C@@H](Cc1ccccc1)C(=O)N[C@@H](CC(C)C)C(=O)N[C@@H](CCCNC(=N)N)C(=O)N[C@@H](CC(N)=O)C(=O)N[C@@H](CC(C)C)C(=O)N[C@H](C(=O)N1CCC[C@H]1C(=O)N[C@@H](CCCNC(=N)N)C(=O)N[C@H](C(=O)N[C@@H](CCC(=O)O)C(=O)N[C@@H](CO)C(=O)O)[C@@H](C)O)C(C)C)[C@@H](C)CC)C(C)C)[C@@H](C)CC` [LL-37] the “Adenocarcinoma cell morphology versus control cells” value [2] was “no visible difference”, the “average MBC” value (H. pylori [3]; 6 h) was 300 ± 232 µg/mL and the “average MBC” value (H. pylori [3]; [5]) was 8.9 ± 4.03 µg/mL. The “Stability to pepsin at low pH (mass spectrometry analysis)” value (pepsin) was “extensive degradation” and the “Antibacterial activity after pre-incubation at pH ~1.5 in the presence of pepsin” value (Escherichia coli MG1655) was “lost”.

In the case of `CC1(C)S[C@@H]2[C@H](NC(=O)[C@H](N)c3ccc(O)cc3)C(=O)N2[C@H]1C(=O)O` [AMX, Amoxicillin], the MIC (H. pylori [4]; [6]) is reported as 0.094 µg/mL, the MIC (H. pylori [4]; [7]) is reported as < 0.016 µg/mL and the MIC (H. pylori [4]; [8]) is reported as 0.016 µg/mL. The MIC (H. pylori [4]; [9]) was 0.032 µg/mL, the MIC (H. pylori [4]; [10]) was 0.25 µg/mL and the MIC (H. pylori [4]; [11]) was 0.032 µg/mL. The MIC (H. pylori [4]; [12]) was 0.047 µg/mL, the MIC (H. pylori [4]; ATCC43504, 96 h, read-out: MIC) was 0.016 µg/mL and the “Susceptibility classification by MIC” value (H. pylori [4]) was “susceptible”.

For `Cc1ncc([N+](=O)[O-])n1CCO` [Metronidazole, metronidazole], the “Resistance classification by MIC” value (H. pylori [4]; H. pylori clinical strain 4, resistant when MIC above 16 μg/ml for Metronidazole) was “resistant”, the “Resistance classification by MIC” value (H. pylori [4]; [13]) was “resistant” and the MIC (H. pylori [4]; [6]) was 0.19 µg/mL. It also gave an MIC (H. pylori [4]; [7]) of 0.094 µg/mL, an MIC (H. pylori [4]; [8]) of 0.5 µg/mL and an MIC (H. pylori [4]; [9]) of 32 µg/mL. The MIC (H. pylori [4]; [10]) was 96 µg/mL, the MIC (H. pylori [4]; [11]) was 32 µg/mL and the MIC (H. pylori [4]; [12]) was 48 µg/mL. For the same compound, the MIC (H. pylori [4]; ATCC43504, 96 h, read-out: MIC) was 64 µg/mL.

With `CC[C@H]1OC(=O)[C@H](C)[C@@H](O[C@H]2C[C@@](C)(OC)[C@@H](O)[C@H](C)O2)[C@H](C)[C@@H](O[C@@H]2O[C@H](C)C[C@H](N(C)C)[C@H]2O)[C@](C)(OC)C[C@@H](C)C(=O)[C@H](C)[C@@H](O)[C@]1(C)O` [CLR, clarithromycin] the “Resistance classification by MIC” value (H. pylori [4]; [13]) was “resistant”, the MIC (H. pylori [4]; 96 h) was 0.125 µg/mL and the MIC (H. pylori [4]; [7]) was 0.19 µg/mL. The MIC (H. pylori [4]; [8]) was 0.25 µg/mL, the MIC (H. pylori [4]; [9]) was 0.047 µg/mL and the MIC (H. pylori [4]; [10]) was 64 µg/mL. It also gave an MIC (H. pylori [4]; [11]) of 1.5 µg/mL, an MIC (H. pylori [4]; [12]) of 1.5 µg/mL and an MIC (H. pylori [4]; ATCC43504, 96 h, read-out: MIC) of 0.094 µg/mL.

With RRWVRRVRRWVRRVVRVVRRWVRR [WLBU2] the “Hemoglobin release from human red blood cells” value (human red blood cells; RBC in PBS, hematocrit ~5%, 0-200 μg/ml, 1 h at 37°C, absorbance at 540 nm, 100% = 2% Triton X-100, means of three experiments) was “strongest hemolytic agent”, the “Adenocarcinoma cell morphology versus control cells” value [2] was “no visible difference” and the “Change of MBC on addition of 2 mM MgCl2” value (H. pylori [3]; H. pylori ATCC 43504) was “four fold increase”. The “Antibacterial activity after pre-incubation at pH ~1.5” value (Escherichia coli MG1655) was “not significantly changed”.
